This passage reports Ki results from BindingDB's records for doi:10.1021/acs.jmedchem.3c00363 (University of Regensburg, 2023).

pKi: −log10 of the molar value. Starred links: 1 amine or outer side, 2 acyl side, 3 side chain; linkers in the order of their positions; H or OH if unused. Non-standard residues stand in square brackets, D forms with d. Residues, ends and D or L forms follow the SMILES beside them. X1 = O=C([C@@H]1C[C@@H](c2ccccc2)[C@@H]1CN[*:1])[*:2]; X2 = O=C([C@H]1C[C@H](c2ccccc2)[C@H]1CN[*:1])[*:2]

The test has as its target Neuropeptide Y receptor type 1 (Homo sapiens) (UniProt P25929). Kind of test: Displacement of [3H]UR-MK299 from human Y1 receptor expressed in human SK-N-MC cells measured after 90 mins by MicroBeta plate counter based competition binding assay. A general note: Displacement assays read how much labelled ligand stays bound in the presence of the test substance.

Neuropeptide Y receptor type 1 (Homo sapiens), sequence (P25929 whole entry, looked up): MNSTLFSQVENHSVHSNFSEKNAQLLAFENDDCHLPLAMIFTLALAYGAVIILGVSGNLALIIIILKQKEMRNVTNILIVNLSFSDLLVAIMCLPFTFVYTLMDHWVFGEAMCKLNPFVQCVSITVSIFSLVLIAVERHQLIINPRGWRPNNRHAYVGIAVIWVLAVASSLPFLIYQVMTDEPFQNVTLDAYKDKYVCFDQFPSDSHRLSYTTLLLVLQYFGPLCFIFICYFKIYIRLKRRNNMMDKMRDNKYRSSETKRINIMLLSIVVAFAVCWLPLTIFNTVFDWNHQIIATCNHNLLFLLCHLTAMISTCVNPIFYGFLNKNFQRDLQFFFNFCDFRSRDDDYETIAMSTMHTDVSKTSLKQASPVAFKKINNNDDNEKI

The pKi is the negative decadic logarithm of the Ki, by convention in mol/L. A low value points to a high Ki. Compound `CC(=O)N[C@@H](CCCNC(=N)N)C(=O)N[C@@H](Cc1ccc(O)cc1)C(=O)N[C@@H](CCCNC(=N)N)C(=O)N[C@@H](CC(C)C)C(=O)N[C@@H](CCCNC(=N)N)C(=O)N[C@@H](Cc1ccc(O)cc1)C(N)=O` gave a pKi of 5.93.

On to `CC(=O)N[C@@H](CCCNC(=N)N)C(=O)NC[C@@H]1[C@H](C(=O)N[C@@H](CCCNC(=N)N)C(=O)NC[C@@H]2[C@H](C(=O)N[C@@H](CCCNC(=N)N)C(=O)N[C@@H](Cc3ccc(O)cc3)C(N)=O)C[C@H]2c2ccccc2)C[C@H]1c1ccccc1` (Ac-R[X1]R[X1]RY-NH2), for which the pKi was < 6.00.

Consider `CC(=O)N[C@@H](CCCNC(=N)N)C(=O)NC[C@H]1[C@@H](C(=O)N[C@@H](CCCNC(=N)N)C(=O)NC[C@H]2[C@@H](C(=O)N[C@@H](CCCNC(=N)N)C(=O)N[C@@H](Cc3ccc(O)cc3)C(N)=O)C[C@@H]2c2ccccc2)C[C@@H]1c1ccccc1` (Ac-R[X2]R[X2]RY-NH2), for which the pKi was < 5.98.

For `CC(=O)N[C@@H](CCCNC(=N)N)C(=O)NC[C@@H]1[C@H](C(=O)N[C@@H](CCCNC(=N)N)C(=O)N[C@@H](CC(C)C)C(=O)N[C@@H](CCCNC(=N)N)C(=O)N[C@@H](Cc2ccc(O)cc2)C(N)=O)C[C@H]1c1ccccc1` (Ac-R[X1]RLRY-NH2), the pKi is 6.64.

As for `CC(=O)N[C@@H](CCCNC(=N)N)C(=O)NC[C@H]1[C@@H](C(=O)N[C@@H](CCCNC(=N)N)C(=O)N[C@@H](CC(C)C)C(=O)N[C@@H](CCCNC(=N)N)C(=O)N[C@@H](Cc2ccc(O)cc2)C(N)=O)C[C@@H]1c1ccccc1` (Ac-R[X2]RLRY-NH2), the pKi is < 5.52.
